We go through one molecule from article PMC8143339, “PK/PD Modeling of the PDE7 Inhibitor—GRMS-55 in a Mouse Model of Autoimmune Hepatitis” (Pharmaceutics, 2021).

Data set [1] relates to ConA-induced hepatitis. Nature of the data set: Preliminary pharmacological evaluation in ConA-induced hepatitis. It counts as in vivo, BALB/c mice. To be noted: 8 h after ConA 20 mg/kg IV; IP pretreatment: rolipram 10, BRL-50481 50, GRMS-55 50 mg/kg; vs vehicle control. Here is the method: ConA was dissolved in sterile saline (2 mg·mL^−1). The studied compounds (GRMS-55, rolipram, and BRL-50481) were dissolved in a mixture of DMSO, PEG 400, and water for injection at a ratio of 25:25:50 (v/v/v). Mice were given an IP injection of the investigated compounds or the corresponding volume of vehicle alone and, thirty minutes later, intravenously (IV) administered with ConA solution. An additional control group received vehicle alone IP instead of the studied compounds followed by IV injection of sterile saline. ConA was given at a dose of 20 mg·kg^−1. Mice were exsanguinated at several time points post-ConA injection. Blood samples were allowed to clot for 0.5 h at room temperature and then centrifuged at 3000× g for 10 min to obtain the serum, which was stored at −20 °C until further analysis.
The influence of PDE inhibitors on the levels of inflammatory mediators and transaminases in ConA-treated mice was investigated in two separate experiments. In the preliminary study, the animals were pretreated IP with GRMS-55 at a dose of 50 mg·kg^−1, the PDE4-selective inhibitor rolipram at a dose of 10 mg·kg^−1, or the PDE7-selective inhibitor BRL-50481 at a dose of 50 mg·kg^−1. Doses of the investigated compounds were chosen based on the results of previous studies. Subsequently, mice were given an IV injection of ConA and sacrificed at 8 h following mitogen dosing. The levels of TNF-α, IL-6, and IFN-γ and the activities of ALT and AST in the mouse serum were measured. This preliminary experiment allowed comparing the activity of the studied PDE inhibitors in this AIH model and helped to select the doses of GRMS-55 for a subsequent pharmacodynamic study. In the final pharmacodynamic experiment, GRMS-55 was administered at two dose levels (50 and 100 mg·kg^−1) followed by ConA administration at a dose of 20 mg·kg^−1. Animals were sacrificed at various time points post-ConA dosing (1, 2, 4, 8 and 24 h). The levels of TNF-α, IL-1β, IL-4, IL-6, IL-10, IL-12, IL-17A, and IFN-γ were measured using a multiplex Luminex assay. In addition, the activities of ALT and AST in the mouse serum were assessed. The concentration–time profiles of the selected biomarkers obtained in this experiment combined with the results of pharmacokinetic analysis allowed the development of a semi-mechanistic PK/PD/disease progression model and the investigation of concentration–effect relationships of GRMS-55.
The serum samples from the preliminary pharmacological study were analyzed using ELISA tests according to the protocols provided by the manufacturers. The TNF-α concentrations were measured using the Mouse TNF-α Quantikine ELISA Kit (R&D Systems, Minneapolis, MN, USA), while the concentrations of IL-6 and IFN-gamma were quantified by ELISA kits manufactured by Cloud-Clone Corp. (Houston, TX, USA). The absorbance of samples was measured on a POLARstar Omega multi-mode microplate reader (BMG LABTECH, Ortenberg, Germany) set at 450 nm wavelength. TNF-α, IL-1β, IL-6, IL-4, IL-10, IL-12, IL-17A, and IFN-γ serum levels in samples from pharmacodynamic experiment were determined by a premixed Magnetic Luminex Assay (R&D Systems, Inc., Minneapolis, MN, USA) according to the manufacturer’s protocol. Serum AST and ALT activities were quantified on a chemistry analyzer BS-800 (Shenzhen Mindray Bio-medical Electronics Co., Ltd., Shenzhen, China).

Data set [2] in a line: Assessment of emetogenicity: α2-adrenoceptor agonist-induced anesthesia (xylazine/ketamine). The format is in vivo, male CD-1 mice. Conditions: doses up to 100 mg/kg IP. Here is the method:
Male CD-1 mice were anesthetized with xylazine (10 mg·kg^−1) and ketamine (80 mg·kg^−1) in saline for injection-administered IP. Fifteen minutes later, the animals were IP-administered with GRMS-55 at doses of 50 or 100 mg·kg^−1, rolipram at a dose of 10 mg·kg^−1, or the corresponding volume of vehicle and subsequently placed in a dorsal recumbency position. The return of the righting reflex (i.e., when the animal turned itself spontaneously to a prone position) was used as an endpoint to measure the duration of anesthesia. In this test, shortening of the sleeping time is a behavioral correlate of emesis.

Data set [3] relates to PDE4B. Nature of the data set: in vitro PDE4B inhibition assay. The format is biochemical. Conditions: ratio of IC50 values.

Each structure is given as a SMILES string.

Turning to `Cn1c(=O)c2c(nc(NCCc3ccccc3)n2CCCC(=O)NN=Cc2ccccc2O)n(C)c1=O` [GRMS-55, 4-(1,3-dimethyl-2,6-dioxo-8-(phenethylamino)-1,2,3,6-tetrahydro-7H-purin-7-yl)-N′-(2-hydroxybenzylidene)butanehydrazide], the “effect on serum IL-6 concentration” value in data set [1] is given as “decreased”. For the same molecule, the “effect on sleeping time” value in data set [2] is listed as “did not affect”. Also, in data set [3], the “times weaker inhibitor of PDE4B than rolipram” value came out at 24.5.
